Data as given in ChEMBL document CHEMBL5131402, “Design, synthesis, and biological evaluation of phenyl thiazole-based AR-V7 degraders” (Bioorg Med Chem Lett, 2022).
pEC50: −log10 of the molar value. In brackets after ≈: the same amount, converted by molar mass.

Tests used:
[1] = tested on: CWR22R; test: Antiproliferative activity against human 22Rv1 cells expressing […]; format: functional, cell-based
[2] = target: von Hippel-Lindau disease tumor suppressor/Androgen receptor (Homo sapiens, UniProt P10275+P40337); test: PROTAC activity at VHL/AR-V7 (unknown origin) expressed in human 22Rv1 cells assessed as induction of AR-V7 degradation; format: cell-based
[3] = tested on: von Hippel-Lindau disease tumor suppressor/Androgen receptor (Homo sapiens), P10275+P40337 [UNDEFINED MUTATION]; test: PROTAC activity at VHL/AR-V7 (unknown origin) expressed in human 22Rv1 cells assessed as induction of AR-V7 degradation my measuring maximum efficacy relative to control; format: cell-based
[4] = Cmax in CD1 mouse at 1 mg/kg, iv administered as single dose; format: ADME, organism-based; set-up: dose 1 mg/kg, route iv; conditions: in vivo
[5] = AUC (0 to infinity) in CD1 mouse at 30 mg/kg, po administered as single dose; format: ADME, organism-based; set-up: time infinity, dose 30 mg/kg, route po; conditions: in vivo
[6] = AUC (0 to infinity) in CD1 mouse at 100 mg/kg, po administered as single dose; format: ADME, organism-based; set-up: time infinity, dose 100 mg/kg, route po; conditions: in vivo
[7] = Cmax in CD1 mouse at 30 mg/kg, po administered as single dose; format: ADME, organism-based; set-up: dose 30 mg/kg, route po; conditions: in vivo
[8] = Metabolic stability in mouse liver microsomes assessed as parent compound remaining measured at 1 hr; format: ADME, Microsome; conditions: read-out: Stability
[9] = Aqueous solubility of the compound at pH.7.4; format: physicochemical
[10] = Oral bioavailability in CD1 mouse at 100 mg/kg administered as single dose; format: ADME, organism-based; conditions: in vivo
[11] = tested on: CWR22R; test: Antiproliferative activity against human 22Rv1 cells expressing […] assessed as maximum efficacy relative to control; format: functional
[12] = AUC (0 to infinity) in CD1 mouse at 1 mg/kg, iv administered as single dose; format: ADME, organism-based; set-up: time infinity, dose 1 mg/kg, route iv; conditions: in vivo
[13] = Terminal half life in CD1 mouse at 100 mg/kg, po administered as single dose; format: ADME, organism-based; conditions: in vivo, read-out: beta t1/2 (converted)
[14] = Oral bioavailability in CD1 mouse at 30 mg/kg administered as single dose; format: ADME, organism-based; conditions: in vivo
[15] = Tmax in CD1 mouse at 30 mg/kg, po administered as single dose; format: ADME, organism-based; conditions: in vivo
[16] = Terminal half life in CD1 mouse at 1 mg/kg, iv administered as single dose; format: ADME, organism-based; conditions: in vivo, read-out: beta t1/2 (converted)
[17] = Tmax in CD1 mouse at 100 mg/kg, po administered as single dose; format: ADME, organism-based; conditions: in vivo
[18] = Cmax in CD1 mouse at 100 mg/kg, po administered as single dose; format: ADME, organism-based; set-up: dose 100 mg/kg, route po; conditions: in vivo
[19] = Terminal half life in CD1 mouse at 30 mg/kg, po administered as single dose; format: ADME, organism-based; conditions: in vivo, read-out: beta t1/2 (converted)
[20] = tested on: CWR22R; test: Antiproliferative activity against human 22Rv1 cells expressing […] assessed as inhibition of cell growth at 10 uM relative to control; format: functional

Sequence of von Hippel-Lindau disease tumor suppressor/Androgen receptor (P10275 whole entry, looked up, change not shown): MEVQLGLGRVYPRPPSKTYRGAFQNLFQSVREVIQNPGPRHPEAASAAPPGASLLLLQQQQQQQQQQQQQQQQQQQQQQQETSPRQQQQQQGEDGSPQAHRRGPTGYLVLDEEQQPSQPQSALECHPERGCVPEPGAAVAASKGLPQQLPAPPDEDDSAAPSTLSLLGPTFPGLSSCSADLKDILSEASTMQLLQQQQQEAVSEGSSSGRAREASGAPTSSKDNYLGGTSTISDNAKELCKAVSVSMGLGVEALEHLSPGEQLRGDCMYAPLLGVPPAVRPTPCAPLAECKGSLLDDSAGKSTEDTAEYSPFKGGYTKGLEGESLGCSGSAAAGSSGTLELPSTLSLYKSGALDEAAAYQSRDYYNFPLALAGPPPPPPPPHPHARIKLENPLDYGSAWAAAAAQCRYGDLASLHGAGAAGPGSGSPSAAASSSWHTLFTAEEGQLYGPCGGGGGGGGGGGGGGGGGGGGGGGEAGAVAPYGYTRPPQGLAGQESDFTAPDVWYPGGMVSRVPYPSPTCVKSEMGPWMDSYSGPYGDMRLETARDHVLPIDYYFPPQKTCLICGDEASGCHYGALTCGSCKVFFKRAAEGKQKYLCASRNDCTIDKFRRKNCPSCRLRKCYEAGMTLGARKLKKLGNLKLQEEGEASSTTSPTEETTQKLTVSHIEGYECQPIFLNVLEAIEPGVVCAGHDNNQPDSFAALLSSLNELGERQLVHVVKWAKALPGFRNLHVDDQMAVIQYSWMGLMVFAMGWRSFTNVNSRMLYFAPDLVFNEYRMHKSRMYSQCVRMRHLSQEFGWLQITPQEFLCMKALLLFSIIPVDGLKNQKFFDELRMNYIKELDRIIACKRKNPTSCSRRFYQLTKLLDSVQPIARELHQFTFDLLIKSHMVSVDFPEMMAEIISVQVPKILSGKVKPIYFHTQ
Sequence of von Hippel-Lindau disease tumor suppressor/Androgen receptor (P40337 whole entry, looked up, change not shown): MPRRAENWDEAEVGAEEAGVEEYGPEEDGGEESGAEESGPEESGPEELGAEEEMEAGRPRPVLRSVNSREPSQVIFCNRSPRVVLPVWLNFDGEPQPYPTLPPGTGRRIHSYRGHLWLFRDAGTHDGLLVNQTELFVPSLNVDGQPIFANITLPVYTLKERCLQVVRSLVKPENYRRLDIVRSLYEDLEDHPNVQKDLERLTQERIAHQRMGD
Sequence of von Hippel-Lindau disease tumor suppressor/Androgen receptor (Homo sapiens), P10275+P40337 [UNDEFINED MUTATION] (P10275 whole entry, looked up, change not shown): as the sequence (P10275 whole entry, looked up, change not shown) above
Sequence of von Hippel-Lindau disease tumor suppressor/Androgen receptor (Homo sapiens), P10275+P40337 [UNDEFINED MUTATION] (P40337 whole entry, looked up, change not shown): as the sequence (P40337 whole entry, looked up, change not shown) above

## Cc1ncsc1-c1ccc(CNC(=O)[C@@H]2C[C@@H](O)CN2C(=O)[C@@H](NC(=O)C2(F)CC2)C(C)(C)C)c(OCCCCCCCCOc2ccc(-c3csc(N4CCOCC4)n3)cc2)c1
[1]
  pEC50: < 5.00

## Cc1ncsc1-c1ccc([C@H](C)NC(=O)[C@@H]2C[C@@H](O)CN2C(=O)[C@@H](NC(=O)CCCCOc2ccc(-c3csc(N4CCC5(COC5)C4)n3)cc2)C(C)(C)C)cc1
[1]
  pEC50: < 5.00

## Cc1ncsc1-c1ccc(CNC(=O)[C@@H]2C[C@@H](O)CN2C(=O)[C@@H](NC(=O)C2(F)CC2)C(C)(C)C)c(OCCCOc2ccc(-c3csc(N4CCOCC4)n3)cc2)c1
[1]
  pEC50: < 5.00

## Cc1ncsc1-c1ccc([C@H](C)NC(=O)[C@@H]2C[C@@H](O)CN2C(=O)[C@@H](NC(=O)c2ccc(-c3csc(N4CCOCC4)n3)cc2)C(C)(C)C)cc1
[2]
  DC50: > 10 µM

## Cc1ncsc1-c1ccc(CNC(=O)[C@@H]2C[C@@H](O)CN2C(=O)[C@@H](NC(=O)C2(F)CC2)C(C)(C)C)c(OCCCCOc2ccc(-c3csc(N4CCOCC4)n3)cc2)c1
[1]
  pEC50: < 5.00

## Cc1ncsc1-c1ccc([C@H](C)NC(=O)[C@@H]2C[C@@H](O)CN2C(=O)[C@@H](NC(=O)CCCCOc2ccc(-c3csc(N4CCOCC4)n3)cc2N)C(C)(C)C)cc1
[1]
  pEC50: < 5.00

## Cc1ncsc1-c1ccc([C@H](C)NC(=O)[C@@H]2C[C@@H](O)CN2C(=O)[C@@H](NC(=O)CCCCOc2ccc(-c3csc(N4CC(C)OCC4C)n3)cc2)C(C)(C)C)cc1 (stereo partly specified)
[1]
  pEC50: < 5.00

## Cc1ncsc1-c1ccc([C@H](C)NC(=O)[C@@H]2C[C@@H](O)CN2C(=O)[C@@H](NC(=O)CCCCCOc2ccc(-c3csc(N4CCOCC4)n3)cc2)C(C)(C)C)cc1
[2]
  DC50: 1 µM
[3]
  Emax: 60%

## Cc1ncsc1-c1ccc([C@H](C)NC(=O)[C@@H]2C[C@@H](O)CN2C(=O)[C@@H](NC(=O)CCCCOc2ccc(-c3csc(N4CCOCC4)n3)c(F)c2)C(C)(C)C)cc1
[1]
  pEC50: < 5.00

## Cc1ncsc1-c1ccc([C@H](C)NC(=O)[C@@H]2C[C@@H](O)CN2C(=O)[C@@H](NC(=O)CCOc2ccc(-c3csc(N4CCOCC4)n3)cc2)C(C)(C)C)cc1
[2]
  DC50: > 10 µM

## Cc1ncsc1-c1ccc([C@H](C)NC(=O)[C@@H]2C[C@@H](O)CN2C(=O)[C@@H](NC(=O)CCCCOc2ccc(-c3csc(N4CC5(COC5)C4)n3)cc2)C(C)(C)C)cc1
[1]
  pEC50: < 5.00

## Cc1ncsc1-c1ccc([C@H](C)NC(=O)[C@@H]2C[C@@H](O)CN2C(=O)[C@@H](NC(=O)CCCCOc2ccc(-c3csc(N4CC5CCC(C4)O5)n3)cc2)C(C)(C)C)cc1
[2]
  DC50: > 10 µM
[1]
  pEC50: < 5.00

## Cc1ncsc1-c1ccc([C@H](C)NC(=O)[C@@H]2C[C@@H](O)CN2C(=O)[C@@H](NC(=O)CCCCOc2ccc(-c3csc(N4CCOCC4)n3)cc2[N+](=O)[O-])C(C)(C)C)cc1
[1]
  pEC50: < 5.00

## Cc1ncsc1-c1ccc(CNC(=O)[C@@H]2C[C@@H](O)CN2C(=O)[C@@H](NC(=O)C2(F)CC2)C(C)(C)C)c(OCCOc2ccc(-c3csc(N4CCOCC4)n3)cc2)c1
[1]
  pEC50: < 5.00

## c1ccc(-c2csc(N3CCOCC3)n2)cc1
[2]
  DC50: > 10 µM

## Cc1cc(OCCCCC(=O)N[C@H](C(=O)N2C[C@H](O)C[C@H]2C(=O)N[C@@H](C)c2ccc(-c3scnc3C)cc2)C(C)(C)C)ccc1-c1csc(N2CCOCC2)n1
[1]
  pEC50: < 5.00

## Cc1ncsc1-c1ccc([C@H](C)NC(=O)[C@@H]2C[C@@H](O)CN2C(=O)[C@@H](NC(=O)CCCCOc2ccc(-c3csc(N4CC(C)OC(C)C4)n3)cc2)C(C)(C)C)cc1 (stereo partly specified)
[1]
  pEC50: < 5.00

## Cc1ncsc1-c1ccc([C@H](C)NC(=O)[C@@H]2C[C@@H](O)CN2C(=O)[C@@H](NC(=O)CCCCOc2ccc(-c3csc(N4CCOCC4)n3)cc2)C(C)(C)C)cc1
[4]
  Cmax: 2900 ng/mL
[2]
  DC50: 0.32 µM
[5]
  AUC(0-inf): 1980 ng·h/mL
[6]
  AUC(0-inf): 5950 ng·h/mL
[7]
  Cmax: 773 ng/mL
[3]
  Emax: 67%
[8]
  remaining at 1 h: 6%
[1]
  pEC50: 6.06
[9]
  solubility: 3.5 µM (≈ 2.76 µg/mL)
[10]
  bioavailability: 4.6%
[11]
  Emax: 94%
[12]
  AUC(0-inf): 1290 ng·h/mL
[13]
  half-life: 42 min
[14]
  bioavailability: 5%
[15]
  Tmax: 45 min
[16]
  half-life: 54 min
[17]
  Tmax: 1.33 h
[18]
  Cmax: 1810 ng/mL
[19]
  half-life: 60 min

## Cc1ncsc1-c1ccc([C@H](C)NC(=O)[C@@H]2C[C@@H](O)CN2C(=O)[C@@H](NC(=O)CCCCOc2ccc(-c3csc(N4CC5(CCOCC5)C4)n3)cc2)C(C)(C)C)cc1
[1]
  pEC50: < 5.00

## Cc1ncsc1-c1ccc([C@H](C)NC(=O)[C@@H]2C[C@@H](O)CN2C(=O)[C@@H](NC(=O)CCCCOc2ccc(-c3csc(N4CCOCC4)n3)cc2F)C(C)(C)C)cc1
[1]
  pEC50: < 5.00

## COc1c(-c2csc(N3CCOCC3)n2)ccc(OCCCCC(=O)N[C@H](C(=O)N2C[C@H](O)C[C@H]2C(=O)N[C@@H](C)c2ccc(-c3scnc3C)cc2)C(C)(C)C)c1F
[2]
  DC50: > 10 µM
[1]
  pEC50: < 5.00

## Cc1ncsc1-c1ccc([C@H](C)NC(=O)[C@@H]2C[C@@H](O)CN2C(=O)[C@@H](NC(=O)CCCCOc2ccc(-c3csc(N4CCOC(C)(C)C4)n3)cc2)C(C)(C)C)cc1
[2]
  DC50: > 10 µM
[20]
  inhibition at 10 µM: 66%

## Cc1ncsc1-c1ccc([C@H](C)NC(=O)[C@@H]2C[C@@H](O)CN2C(=O)[C@@H](NC(=O)CCCCOc2ccc(-c3csc(N4CCOCC4C)n3)cc2)C(C)(C)C)cc1 (stereo partly specified)
[2]
  DC50: > 10 µM
[1]
  pEC50: < 5.00

## Cc1ncsc1-c1ccc([C@H](C)NC(=O)[C@@H]2C[C@@H](O)CN2C(=O)[C@@H](NC(=O)CCCCOc2ccc(-c3csc(N4CCOC(C)C4)n3)cc2)C(C)(C)C)cc1 (stereo partly specified)
[1]
  pEC50: < 5.00

## Cc1ncsc1-c1ccc(CNC(=O)[C@@H]2C[C@@H](O)CN2C(=O)[C@@H](NC(=O)C2(F)CC2)C(C)(C)C)c(OCCCCCCOc2ccc(-c3csc(N4CCOCC4)n3)cc2)c1
[1]
  pEC50: < 5.00

## CCC1COCCN1c1nc(-c2ccc(OCCCCC(=O)N[C@H](C(=O)N3C[C@H](O)C[C@H]3C(=O)N[C@@H](C)c3ccc(-c4scnc4C)cc3)C(C)(C)C)cc2)cs1 (stereo partly specified)
[1]
  pEC50: < 5.00

## Cc1ncsc1-c1ccc([C@H](C)NC(=O)[C@@H]2C[C@@H](O)CN2C(=O)[C@@H](NC(=O)CCCOc2ccc(-c3csc(N4CCOCC4)n3)cc2)C(C)(C)C)cc1
[2]
  DC50: 0.35 µM
[3]
  Emax: 53%
[8]
  remaining at 1 h: 5%
[1]
  pEC50: 5.87
[9]
  solubility: < 2 µM
[11]
  Emax: 90%

## Cc1ncsc1-c1ccc([C@H](C)NC(=O)[C@@H]2C[C@@H](O)CN2C(=O)[C@@H](NC(=O)COc2ccc(-c3csc(N4CCOCC4)n3)cc2)C(C)(C)C)cc1
[2]
  DC50: > 10 µM
